Measurements: paper PMC4669722, “Antitumour potential of BPT: a dual inhibitor of cdk4 and tubulin polymerization” (Cell Death & Disease, 2015)
“Also recorded” adds a separate entry of the source.

Legend:
pBluescript plasmid DNA = experiment: EtBr displacement assay; assay type: binding; details: 1.3 μM EtBr, pH 7.4
Procedure: The assays were performed in a 96-well plate with clear bottom (Costar, Washington, DC, USA). The assay involved the addition of 10 μl of 10 × concentrated stock solution of compounds (dissolved in DMSO and further diluted in EtBr displacement assay buffer) to 90 μl of reaction mixture containing 6 μg of purified pBlueScript DNA and 1.3 μM EtBr in EtBr displacement assay buffer with final pH 7.4. Equivalent amounts of DMSO were added to the vehicle controls. In addition to control samples (DNA+EtBr), test samples (DNA+EtBr+test compounds), blank 1 (EtBr only), blank 2 (DNA only), wells containing DNA and compound were also prepared to test any change in the background fluorescence readings. The reduction in relative fluorescence counts was monitored ([…]) and recorded after 1 min equilibration time. Fascaplysin and actinomycin D, which are known to intercalate d-s DNA, were used as standard compounds in assay. The mean control and test readings were corrected by subtracting blank readings. The percentage fluorescence in the test samples in reaction with control samples was calculated by using following formula: […]

Calu-1 cells = experiment: Cell cycle analysis, Calu-1; assay type: cell-based, human; details: p53-null, non-functional mitotic-spindle checkpoint
Procedure: The untreated (control) and treated (with test compounds) cells were harvested by trypsinization, washed once with PBS and then fixed in 70% chilled (−20 °C) ethanol for minimum 1 h. After the fixation step, cells were centrifuged for 5 min at 3000 × g at room temperature, and the pellet was suspended in PBS containing 50 μg/ml propidium iodide (Sigma-Aldrich, Dorset, UK; cat. no. P-4170) and 0.5 mg/ml DNase-free ribonuclease (Sigma-Aldrich; cat. no. R-5503). The cells were stained for 1 h in the dark at 4 °C. Cell cycle analysis was performed on the Beckman Coulter (Epics Altra) fluorescence-activated cell sorter (Beckman Coulter UK Ltd, Buckinghamshire, UK). To gate all the events that represent single cells, and not cell doublets or cell clumps, the following analyses were performed on the samples. Cytograms of propidium iodide fluorescence peak signal versus integrated fluorescence or the linear signal were plotted. All data points on the straight line were isolated in a single gate and the gated data was further used for plotting a histogram that represents a complete cell cycle. The total number of events was not allowed to exceed 200 events per s. Data acquisition was stopped after a minimum of 10 000 events had been collected.
Fig. S4. Cell cycle analysis of calu-1 cells upon BPT treatment. […]

[1] = system: p53+ A549 and LS174T cells; experiment: Western blot of cell cycle proteins in p53+ cells; assay type: cell-based, human; details: IC50 concentration, 24 h
Procedure: (§1) A549, LS174T and MiaPaCa cells were seeded in 25 cm^2 tissue culture flasks in the complete growth medium. […] Cells were harvested by trypsinization, washed in ice-cold PBS and then lysed in buffer (Sigma-Aldrich; cat. no. C-2978) containing protease inhibitor cocktail (Sigma-Aldrich; cat. no. P8340). The lysates were centrifuged at 14 000 r.p.m. (revolutions per minute) for 10 min at 4 °C and the total protein concentrations were estimated in the clear supernatants using the Bradford method. Equal amounts of protein (40 μg) were loaded and electrophoresed on 10% SDS-polyacrylamide gels and blotted on Immobilon-P Transfer Membrane (Millipore; cat. no.IPVH20200). The blots were probed with respective primary antibodies (at 4 °C, overnight) at the following dilutions: cdc2 (New England Biolabs, Hitchin, UK; cat. no. 9110) at 1 : 1000 to detect Cdk1; cyclin B1 (CRUK, London, UK; cat. no. V152) at 1 : 1500 dilution to detect cyclin B1; Pab 1801 (Santa Cruz Biotechnology, Heidelberg, Germany; cat. no. sc-98) at 1 : 500 dilution to detect p53; N-20 (Santa Cruz Biotechnology; cat. no. sc-469) at 1 : 500 dilution to detect p21; C-19 (Santa Cruz Biotechnology; cat. no. sc-528) at 1 : 250 dilution to detect p27; AC-40 (Sigma-Aldrich; cat. no. A4700) at 1 : 2000 dilution to detect actin. Appropriate secondary antibodies conjugated with horseradish peroxidase were used and the protein bands were visualized by chemiluminescence using the ECL Kit (Santa Cruz Biotechnology; cat. no. sc-2048).

MIAPaCa cells = experiment: Western blot of cell cycle proteins in mutant p53 cells; assay type: cell-based, human; details: data not shown
Procedure: as §1, with “Appropriate secondary antibodies conjugated with horseradish peroxidase were used and the protein bands were visualized by chemiluminescence using the ECL Kit (Santa Cruz Biotechnology; cat. no. sc-2048).” left out

[2] = system: BNL SV A.8 (SV40-mediated transformed mouse embryonic hepatic cell line); experiment: Long-term cell survival assay, BNL SV A.8; assay type: cell-based; details: BNL SV A.8, 12 days
Procedure: Fig. S3: Long term survival of Mouse embryonic normal hepatic cell line (BNL CL2) and SV40 mediated transformed mouse embryonic hepatic cell line (BNL SV A.8) after the treatment with BPT. The cells were treated with the diffrent concentrations of BPT and then incubated in drug free medium for 12 days. the colonies were fixed in methanol : acetic acid (2: 1) and stained with 1% crystal violet and representative plates were scanned using the gel documentation system .

O=C(c1ccccc1-c1ccccc1)N1CCc2c([nH]c3ccccc23)C1 [BPT, 2-(biphenyl-2-carbonyl)-2,3,4,9-tetrahydro-1H-pyrido[3,4-b]indole]
EtBr displacement from DNA (pBluescript plasmid DNA): incapable of displacing; also recorded: does not displace ethidium bromide; also recorded: No EtBr displacement up to 100 μM ^a
phase of cell cycle block in Calu-1 cells (Calu-1 cells): blocks only at the G0/G1 phase
induction of p53 [1]: more than 10 fold
levels of p21CIP1/WAF1 (p21) [1]: increase
levels of p27KIP1 (p27) [1]: elevated
Cdk1 and cyclin B1 protein levels ([1]; versus untreated control): downregulated
cyclin B1 and Cdk1 levels (MIAPaCa cells): elevated
p53, p21 and p27 levels (MIAPaCa cells): remained unchanged
number of colonies, long-term survival [2]: selectively reduces the number of colonies
